Measurements reported in patent US9415134B2, “Fosfomycin preparation, a method for producing the preparation, and a polymethylmethacrylate bone cement powder containing the preparation” (HERAEUS MEDICAL GMBH, priority 2014, dated 2016).

Columns and labels:
[1] = Hygroscopic properties of fosfomycin salts; format: physicochemical; details: salt alone, atmospheric humidity
Excerpt: Both salts attract atmospheric humidity and deliquesce in the process. Experiments have shown that these salts, in the dry state, can be integrated into cement powders of polymethylmethacrylate bone cements. However, said cement powders also attract atmospheric humidity during storage on air, upon which the antibiotic particles deliquesce. This can cause the cement powder to clump. For this reason, both of these fosfomycin salts are unsuitable or poorly suitable for industrial production of antibiotic polymethylmethacrylate bone cement powders.

[2] = molecular target: MurA (UDP-N-acetylglucosamine-enolpyruvyl-transferase) (Escherichia coli, UniProt P0A749); details: cited from earlier work
[3] = test system: gram-negative and gram-positive bacteria including methicillin-resistant staphylococci; details: cited from earlier work
[4] = test system: vancomycin-resistant Staphylococcus aureus (VRS); details: cited from earlier work
[5] = test system: vancomycin-resistant enterococci; details: cited from earlier work
ESBL = details: cited from earlier work

Chain of MurA (UDP-N-acetylglucosamine-enolpyruvyl-transferase) (P0A749 whole entry): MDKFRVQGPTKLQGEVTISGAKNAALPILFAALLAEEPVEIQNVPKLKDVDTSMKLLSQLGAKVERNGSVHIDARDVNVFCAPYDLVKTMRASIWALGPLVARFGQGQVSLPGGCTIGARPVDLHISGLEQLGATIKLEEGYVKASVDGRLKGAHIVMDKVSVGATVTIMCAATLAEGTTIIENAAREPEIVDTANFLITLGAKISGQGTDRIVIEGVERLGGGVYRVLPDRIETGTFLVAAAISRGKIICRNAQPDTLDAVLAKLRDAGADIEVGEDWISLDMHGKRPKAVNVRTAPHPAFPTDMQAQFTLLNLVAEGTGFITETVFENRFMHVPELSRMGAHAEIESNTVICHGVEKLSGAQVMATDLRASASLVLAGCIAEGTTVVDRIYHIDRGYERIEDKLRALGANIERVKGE

C[C@@H]1O[C@@H]1P(=O)([O-])[O-].O.[Ca+2] [calcium salt of fosfomycin, monohydrate of the calcium salt of fosfomycin]
Hygroscopic properties [1]: extraordinarily hygroscopic

C[C@@H]1O[C@@H]1P(=O)(O)O [Fosfomycin, (2R,3S)-3-methyloxiranphosphonic acid]
Inhibition of MurA [2]: inhibits
Antibacterial activity ([3]; gram-negative and gram-positive bacteria including methicillin-resistant staphylococci): active
Mode of antibacterial action ([3]; in susceptible bacteria): bactericidal
Antibacterial efficacy [4]: efficacious
Antibacterial efficacy [5]: efficacious
Antibacterial efficacy (ESBL): efficacious

C[C@@H]1O[C@@H]1P(=O)([O-])[O-].[Na+].[Na+] [sodium salt, disodium salt of fosfomycin]
Hygroscopic properties [1]: extraordinarily hygroscopic

C[C@@H]1O[C@@H]1P(=O)(O)O.NC(CO)(CO)CO [trometamol-fosfomycin]
Hygroscopic properties [1]: somewhat hygroscopic
